Experiments:
[1] = biological target: LPA2 receptor (Homo sapiens, UniProt Q9HBW0); assay: LPA2R-calciumflux assay; format: cell-based; conditions: U2OS cells recombinant expressing LPA2R; LPA-induced intracellular calcium signal (FLIPR Tetra); 10 concentrations from 30 uM to 1 nM, 1% DMSO
From the text: Description of the LPA2R Assay
Cell Cultivation/Propagation
LPA2R-calciumflux Assay Protocol
The assay detects intra cellular calcium which is generated by cells upon activation of the LPA2 receptor by its ligand LPA. This transient calcium mobilisation can be monitored using a commercial calcium detection kit (e.g. from Molecular Devices). The main component of such a kit is a dye, which becomes fluorescent when calcium is present—a transient fluorescence signal after laddition of a ligand to a test well are the result. Readers like the FLIPR (from Molecular Devices) can be used to monitor such transient “Ca-flux” signals.
The signals are calculated according to peak maximum minus base line. Compounds which are antogonists of LPA lead to a decreased mobilisation of intracellular calcium and thus to a lower signal. The assay is performed in microplates (384 wells per plate).
The assay itself is run according to the following procedure: • 50 uL seed cells (10000 cells/well in DMEM buffer) • Incubate 24 h at 37° C., 10% CO2 • aspirate medium • 50 uL add calcium dye 1×HBSS/HEPES buffer • incubate 1 h at 37° C. (“loading”) • equilibrate 10 min at RT • 5 uL add compounds in HEPES buffer • shake 10 sec. @ 1000 rpm • incubate 15 min at RT • 20 uL add LPA (in the FLIPR Tetra) in KREBS-Puffer/BSA & measurement
The cells are seeded in DMEM buffer (DMEM, 10% FCS, 10 mM HEPES, 1% Pen/Strep).
Dye loading is done in HBSS/HEPES buffer (100 mL 10×HBSS+20 mL 1M HEPES+880 mL water, pH 7.4)
The LPA is added in Krebs/BSA buffer (120 mM NaCl, 5 mM KCl, 0.62 mM MgSO4, 1.8 mM CaCl2, 10 mM HEPES, 6 mM D(+)-Glucose, 0.2% BSA, pH 7.4).
The compounds are pre-diluted in HEPES buffer (20 mM, pH 7.4), whereby the final DMSO content in the assay is kept at 1%. The compounds are pre-diluted in order to generate dose response series on the microplates. The dose response series consist of 10 concentrations for each compound from 30 uM final to 1 nM final. From all compound wells the resulting signals are referred to control wells (located on each plate besides the compound wells) in terms of % activity.
[formula] From these % activity values—along with the corresponding compound concentrations—IC50 values are fitted for each compound using standard fitting programs such as Graphpad Prism. Here the method “log(inhibitor) vs. response—Variable slope” is used. Reader Settings (FLIPR Tetra) • ExcWLength:470—495 • Em.Wlength: 515—575 • Gain: 50 • Exp. Time: 0,4 • Exc.Intensity: 80 • READ with TF • First read interval: 1,00 s • Number of first reads: 240 • Reads before dispense: 10 • Second read interval: 1,00 s • Number of second reads: 0 • Save Images No

[2] = biological target: T1, P2Y10-Gα16 (Homo sapiens, UniProt O00398); conditions: induction of Ca2+ transients via P2Y10-Gα16; cited from earlier work
T1 construct: "P2Y10-Gα16"; fused on or other part: The promiscuous G-protein alpha subunit G alpha 16 (GNA15) is fused to the receptor; By the printed name order it probably sits at the C-terminus; It is a coupling handle and not part of the key
T1 sequence (O00398 whole entry, the tested form may be a part): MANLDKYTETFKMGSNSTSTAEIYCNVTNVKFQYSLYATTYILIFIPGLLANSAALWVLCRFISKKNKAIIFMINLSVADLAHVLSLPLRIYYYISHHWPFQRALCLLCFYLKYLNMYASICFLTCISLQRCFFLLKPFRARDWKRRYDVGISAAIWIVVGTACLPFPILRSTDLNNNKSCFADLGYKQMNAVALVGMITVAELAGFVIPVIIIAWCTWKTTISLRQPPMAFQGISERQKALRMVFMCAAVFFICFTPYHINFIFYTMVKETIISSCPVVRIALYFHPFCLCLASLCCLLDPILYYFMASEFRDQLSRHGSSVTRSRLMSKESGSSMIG

Sequence of LPA2 receptor (Q9HBW0 whole entry): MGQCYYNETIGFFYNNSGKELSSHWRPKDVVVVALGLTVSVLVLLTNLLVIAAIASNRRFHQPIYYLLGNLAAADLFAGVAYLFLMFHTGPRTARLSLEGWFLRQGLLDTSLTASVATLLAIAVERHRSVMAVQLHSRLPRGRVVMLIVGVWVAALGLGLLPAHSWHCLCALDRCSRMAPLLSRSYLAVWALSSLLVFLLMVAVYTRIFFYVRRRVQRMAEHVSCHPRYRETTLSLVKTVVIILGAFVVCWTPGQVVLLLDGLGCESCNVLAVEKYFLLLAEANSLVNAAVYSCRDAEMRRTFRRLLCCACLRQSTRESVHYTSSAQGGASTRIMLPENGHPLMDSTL

Row | Molecule | IC50 [1] [nM] | EC50 [2] [nM]
1 | Cc1c(-c2n[nH]c3c2C(O)(C(F)(F)F)CC(=O)N3)cnn1C (centres unmarked) [Compound 33, 3-(1,5-Dimethyl-1H-pyrazol-4-yl)-4-hydroxy-4-trifluoromethyl-1,4,5,7-tetrahydro-pyrazolo[3,4-b]pyridin-6-one] | 1000 to 10000 | –
2 | CCCCCCCCCCCCC/C=C/[C@@H](O)[C@@H](N)COP(=O)(O)O [Compound S1P, sphingosine 1-phosphate] | – | 53
3 | Lysophosphatidic acid [LPA] | – | 130

Second part, led by results:

Row | IC50 [1] [nM] | Molecule | EC50 [2] [nM]
4 | > 10000 | CCN1C(=O)CC(O)(C(F)(F)F)c2c(-c3ccccc3)n[nH]c21 (centres unmarked) [Compound 34, 7-Ethyl-4-hydroxy-3-phenyl-4-trifluoromethyl-1,4,5,7-tetrahydro-pyrazolo[3,4-b]pyridin-6-one] | –
5 | > 10000 | O=C1CC(O)(c2cc(C(F)(F)F)cc(C(F)(F)F)c2)c2c(-c3ccccc3)n[nH]c2N1 (centres unmarked) [Compound 35, 4-(3,5-Bis-trifluoromethyl-phenyl)-4-hydroxy-3-phenyl-1,4,5,7-tetrahydro-pyrazolo[3,4-b]pyridin-6-one] | –
